# Test: DPPH radical scavenging assay
# Type: biochemical
# Details: DPPH radical scavenging activity in 30 minutes
# Procedure: FIGS. 4A through 4D show lipid peroxidation and DPPH (1,1-diphenyl-2-picrylhydrazyl) analysis result which were obtained by measuring the antioxidant activity of Comparative Example 1 (SBR), Comparative Example 2 (MOB) and Present Example 1 (GenoTX-407). […] As shown in the upper left graph of FIG. 4, after exposure to FeCl3 (50 μM), TBARS (thiobarbituric acid reactive substances) level increased (74%).
structure (smiles),measurement,value
O=C1O[C@H]([C@@H](O)CO)C(O)=C1O [ascorbic acid],"EC50, DPPH",14.38 µg/mL

# — US20220080016A1, “Antioxidant, Antibacterial Or Anti-Inflammatory Pharmaceutical Composition Containing Scutellaria Baicalensis Extract And Magnolia Officinalis Extract As Active Ingredients” (Genogen Co.,Ltd., priority 2020, published 2022)
